Test results from PubChem BioAssay (NCI).
“And” between values parts separate entries of the source, which are not always exact repeats. Equal values may be shown once.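 Dose response: 5 concentrations. Exposure: 48 h. Format: 96-well plates. Endpoint: linear interpolation; highest concentration if not reached. Here, GI50 denotes the concentration required for 50% inhibition of growth. TGI: total growth inhibition.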

Key:
Experiment in all cases: inhibition of tumour cell growth, NCI panel, 48 h
SF-539 CNS = test system: SF-539 CNS
EKVX NSCLC = test system: EKVX NSCLC
HCT-116 colon = test system: HCT-116 colon
OVCAR-4 ovarian = test system: OVCAR-4 ovarian
M14 melanoma = test system: M14 melanoma
COLO 205 colon = test system: COLO 205 colon
SW-620 colon = test system: SW-620 colon
MALME-3M melanoma = test system: MALME-3M melanoma
UACC-257 melanoma = test system: UACC-257 melanoma
SK-MEL-2 melanoma = test system: SK-MEL-2 melanoma

## O=C(Nc1ccc(Cl)c(Cl)c1)NS(=O)(=O)c1cnccc1Oc1ccc(F)cc1
SF-539 CNS
  GI50: 3.64 µM
  TGI: 24.6 µM
EKVX NSCLC
  GI50: 2.68 µM
  TGI: 44.4 µM
HCT-116 colon
  GI50: 3.07 µM
  TGI: 12.3 µM
OVCAR-4 ovarian
  GI50: 3.26 µM
  TGI: > 100 µM
M14 melanoma
  GI50: 5.24 µM
  TGI: > 100 µM
COLO 205 colon
  GI50: 2.97 µM
  TGI: 7.59 µM
SW-620 colon
  GI50: 3.01 µM
  TGI: > 100 µM
MALME-3M melanoma
  GI50: 2.53 µM
  TGI: 7.55 µM
UACC-257 melanoma
  GI50: 4.72 µM
  TGI: 24.4 µM
SK-MEL-2 melanoma
  GI50: 4.71 µM
  TGI: > 100 µM

## Cc1ccc(-c2nc3nc(-c4ccc(F)cc4)nc(N4CCCNCC4)c3o2)cc1
SF-539 CNS
  GI50: 1.66 µM
  TGI: 3.04 µM
EKVX NSCLC
  GI50: 1.78 µM
  TGI: 3.34 µM
HCT-116 colon
  GI50: 0.457 µM
  TGI: 1.73 µM
OVCAR-4 ovarian
  GI50: 1.83 µM
  TGI: 3.25 µM
M14 melanoma
  GI50: 1.86 µM
  TGI: 3.56 µM
COLO 205 colon
  GI50: 2.03 µM
  TGI: 4.07 µM
SW-620 colon
  GI50: 0.742 µM
  TGI: 2.17 µM
MALME-3M melanoma
  GI50: 1.71 µM
  TGI: 3.21 µM
UACC-257 melanoma
  GI50: 1.89 µM
  TGI: 3.65 µM
SK-MEL-2 melanoma
  GI50: 1.73 µM
  TGI: 3.35 µM

## CN(C)CCNC(=O)Cn1ccc(=O)c2c([N+](=O)[O-])cccc21
SF-539 CNS
  TGI: > 100 µM
EKVX NSCLC
  TGI: > 100 µM
HCT-116 colon
  TGI: > 100 µM
OVCAR-4 ovarian
  TGI: > 100 µM
M14 melanoma
  TGI: > 100 µM
COLO 205 colon
  TGI: > 100 µM
SW-620 colon
  TGI: > 100 µM
MALME-3M melanoma
  TGI: > 100 µM
UACC-257 melanoma
  TGI: > 100 µM
SK-MEL-2 melanoma
  TGI: > 100 µM

## Cc1cc(I)cc(CN(C)CCCN2CCCC2)c1O
SF-539 CNS
  GI50: 15.3 µM
  TGI: 31 µM
EKVX NSCLC
  GI50: 38.4 µM
  TGI: > 100 µM
HCT-116 colon
  GI50: 15.5 µM
  TGI: 55.6 µM
OVCAR-4 ovarian
  GI50: 34 µM
  TGI: > 90.1 µM
M14 melanoma
  GI50: 16.4 µM
  TGI: 33 µM
COLO 205 colon
  GI50: 15.6 µM
  TGI: 33.1 µM
SW-620 colon
  GI50: 15.9 µM
  TGI: 35.4 µM
MALME-3M melanoma
  GI50: 16.6 µM
  TGI: 33.1 µM
UACC-257 melanoma
  GI50: 22.7 µM
  TGI: > 57 µM
SK-MEL-2 melanoma
  GI50: 20.6 µM
  TGI: 40.4 µM

## Cc1nc(C(N)=S)sc1C(=O)/C=C/c1c(O)ccc2ccccc12
SF-539 CNS
  TGI: > 100 µM
EKVX NSCLC
  TGI: > 100 µM
HCT-116 colon
  TGI: > 100 µM
OVCAR-4 ovarian
  TGI: > 100 µM
M14 melanoma
  TGI: > 100 µM
COLO 205 colon
  TGI: > 100 µM
SW-620 colon
  TGI: > 100 µM
MALME-3M melanoma
  TGI: > 100 µM
UACC-257 melanoma
  TGI: > 100 µM
SK-MEL-2 melanoma
  TGI: > 100 µM

## COC(=O)C(/C(=N\O)C(=O)Nc1cccc(Cl)c1C)c1cnc2ccccc2n1 (stereo not given)
SF-539 CNS
  TGI: > 100 µM
EKVX NSCLC
  TGI: > 100 µM
HCT-116 colon
  TGI: > 100 µM
OVCAR-4 ovarian
  TGI: > 100 µM
M14 melanoma
  TGI: > 100 µM
COLO 205 colon
  TGI: > 100 µM
SW-620 colon
  TGI: > 100 µM
MALME-3M melanoma
  TGI: > 100 µM
UACC-257 melanoma
  TGI: > 100 µM
SK-MEL-2 melanoma
  TGI: > 100 µM

## O=c1c(F)cn(Cc2ccccc2CCl)c(=O)n1Cc1ccccc1CCl
SF-539 CNS
  GI50: 2.06 µM
  TGI: 4.73 µM
EKVX NSCLC
  GI50: 3.07 µM
  TGI: 9.22 µM
HCT-116 colon
  GI50: 1.11 µM
  TGI: 2.84 µM
OVCAR-4 ovarian
  GI50: 3.5 µM
  TGI: 12.8 µM
M14 melanoma
  GI50: 1.69 µM
  TGI: 4.05 µM
COLO 205 colon
  GI50: 1.7 µM
  TGI: 3.52 µM
SW-620 colon
  GI50: 1.45 µM
  TGI: 3.73 µM
MALME-3M melanoma
  GI50: 2.2 µM
  TGI: 4.59 µM
UACC-257 melanoma
  TGI: 2.44 µM
SK-MEL-2 melanoma
  GI50: 1.54 µM
  TGI: 3.05 µM

## CCC1=CC2CN(C1)Cc1c([nH]c3ccccc13)[C@@](C(=O)OC)(c1cc3c(cc1OC)N(C)[C@H]1[C@@](O)(C(=O)OC)[C@H](OC(C)=O)[C@]4(CC)C=CCN5CC[C@]31[C@@H]54)C2 (stereo not given in full)
SF-539 CNS
  GI50: 0.014 µM
  TGI: 8.44 µM
EKVX NSCLC
  GI50: 26.7 µM and 45.8 µM
  TGI: 50 µM and > 100 µM
HCT-116 colon
  GI50: < 0.005 µM
  TGI: 50 µM and > 100 µM
OVCAR-4 ovarian
  GI50: 0.0341 µM
  TGI: 50 µM and > 100 µM
M14 melanoma
  GI50: 0.00953 µM and 0.0245 µM
  TGI: 5.82 µM and 0.913 µM
COLO 205 colon
  GI50: 0.00763 µM
SW-620 colon
  GI50: < 0.005 µM
  TGI: 50 µM and > 100 µM
MALME-3M melanoma
  GI50: < 0.005 µM
  TGI: 8.68 µM
UACC-257 melanoma
  GI50: 7.54 µM
  TGI: 33.3 µM
SK-MEL-2 melanoma
  TGI: 14.9 µM and > 100 µM

## O=c1oc2ccc(I)cc2c(=O)n1-c1ccc(Cl)cc1F
SF-539 CNS
  GI50: 0.988 µM
  TGI: 6.71 µM
EKVX NSCLC
  GI50: 1.53 µM
  TGI: 8.77 µM
HCT-116 colon
  GI50: 1.21 µM
  TGI: 3.86 µM
OVCAR-4 ovarian
  GI50: 1.68 µM
  TGI: 19 µM
M14 melanoma
  GI50: 0.598 µM
  TGI: 7.87 µM
COLO 205 colon
  GI50: 4.96 µM
  TGI: 19.9 µM
SW-620 colon
  GI50: 2.02 µM
  TGI: 88.2 µM
MALME-3M melanoma
  GI50: 0.516 µM
  TGI: 3.49 µM
UACC-257 melanoma
  GI50: 0.526 µM
  TGI: 6.45 µM
SK-MEL-2 melanoma
  GI50: 0.582 µM
  TGI: 3.43 µM

## COc1ccc(/C(=N\NC(=S)NN)C(c2ccc(OC)cc2)C2C(=O)Oc3ccccc32)cc1 (stereo not given)
SF-539 CNS
  GI50: > 100 µM
  TGI: > 100 µM
EKVX NSCLC
  GI50: > 100 µM
  TGI: > 100 µM
HCT-116 colon
  GI50: > 100 µM
  TGI: > 100 µM
OVCAR-4 ovarian
  GI50: > 100 µM
  TGI: > 100 µM
M14 melanoma
  GI50: > 100 µM
  TGI: > 100 µM
COLO 205 colon
  GI50: > 100 µM
  TGI: > 100 µM
SW-620 colon
  GI50: > 100 µM
  TGI: > 100 µM
MALME-3M melanoma
  GI50: > 100 µM
  TGI: > 100 µM
UACC-257 melanoma
  GI50: > 100 µM
  TGI: > 100 µM
SK-MEL-2 melanoma
  GI50: > 100 µM
  TGI: > 100 µM

## Nc1ncnc2c1ncn2CC(O)CO (stereo not given)
SF-539 CNS
  TGI: > 100 µM
EKVX NSCLC
  TGI: > 100 µM
HCT-116 colon
  TGI: > 100 µM
OVCAR-4 ovarian
  TGI: > 100 µM
M14 melanoma
  TGI: > 100 µM
COLO 205 colon
  TGI: > 100 µM
SW-620 colon
  TGI: > 100 µM
MALME-3M melanoma
  TGI: > 100 µM
UACC-257 melanoma
  TGI: > 100 µM
SK-MEL-2 melanoma
  TGI: > 100 µM

## COc1ccc2c(c1)/C(=C/c1cc(OC)c(OC)c(OC)c1)C(=O)N2
SF-539 CNS
  GI50: 0.74 µM
  TGI: 19.5 µM
EKVX NSCLC
  GI50: 11.6 µM
  TGI: > 100 µM
HCT-116 colon
  GI50: 0.0272 µM
  TGI: > 100 µM
OVCAR-4 ovarian
  TGI: > 100 µM
M14 melanoma
  GI50: 0.351 µM
  TGI: 11.7 µM
COLO 205 colon
  GI50: 0.517 µM
  TGI: 3.03 µM
SW-620 colon
  GI50: 0.175 µM
  TGI: > 100 µM
MALME-3M melanoma
  GI50: 0.556 µM
  TGI: > 100 µM
UACC-257 melanoma
  GI50: 0.615 µM
  TGI: > 100 µM
SK-MEL-2 melanoma
  GI50: 1.18 µM
